Results as given in patent US10266807B2, “Methods and compositions for culturing endoderm progenitor cells in suspension” (FUJIFILM Cellular Dynamics, Inc., priority 2013, dated 2019).

Legend:
Type in all cases: cell-based, human
[1] = test system: undifferentiated iPSCs (2.038); experiment: Generation of definitive endoderm (DE) from undifferentiated iPSCs with or without CHIR; conditions: for CXCR4/CD117 co-expressing cells / Output DE Day 7: 2 μM CHIR (+)
Protocol: Undifferentiated iPSCs maintained using Essential 8 on Matrigel were plated at a seeding density of 13,000 cells/cm^2 on Matrigel. Four days-post-plating, the cells were placed in 90% RPMI/10% SFD media containing 100 ng/mL Activin A for one day followed by incubation with 90% RPMI/10% SFD supplemented with 100 ng/mL Activin A, 2.5 ng/mL BMP4, 10 ng/mL VEGF, and 10 ng/mL zebrafish FGF2 for the next two days. From day 4-12, the cells were placed in SFD media supplemented with 100 ng/mL Activin A, 2.5 ng/mL BMP4, 10 ng/mL VEGF, and 10 ng/mL zebrafish FGF2. Supplementation with 2 μM CHIR was included in one set at day 1 of differentiation while it was omitted in another set. The cells were harvested on day 7 using TrypLE. The total viable cell number post digestion was determined at each time point. The percentage of CXCR4, CD117 co-expressing cells was determined by cell surface staining by flow cytometry (Table 1). The absolute number of CXCR4/CD117 double-positive cells was calculated. The ratio of input iPSC to output DE was also quantified (Table 1).

2.038AT4 cells [2] = experiment: Beta cell differentiation of 2.038AT4 EPCs with Dox induction, intracellular flow cytometry; conditions: Dox 1.5 μg/ml between day 10-15, harvested day 15, repeat experiment
Protocol: 2.038AT4.14EGN (also called 2.038AT4) cells were maintained in Essential 8 under hypoxic conditions during DE induction without CHIR using 2.5 ng/ml BMP4. DE were maintained in EPC cycling media without MEFs under hypoxic conditions. Media was supplemented with neomycin (100 ug/ml) and puromycin (600 ng/ml) for iPSC culture, DE culture, and EPC cycling. At P7, EPC were harvested and MACS purification was performed using CD34/CXCR4/CD117. Purified cells were plated on neat Matrigel in the presence of a Rock inhibitor.
Beta cell differentiation was initiated 5 days post re-aggregation according to the protocol described by Nostro et al. (2011) further modified by Cheng et al. (2012a) in a 2D format. Dox was added at different stages of the beta cell differentiation process. Dox (1.5 μg/ml) induction was performed between days 6-15 of beta cell differentiation, between days 8-15 of beta cell differentiation, or between days 10-15 of beta cell differentiation. The cells were harvested on day 15 of beta cell differentiation, fixed, and stained for quantification of PDX/NeuroD1/C-peptide/Glucagon/Somatostatin by intracellular flow cytometry.
The experiment was performed again with the addition of Dox (1.5 μg/ml) between day 10-15 of beta cell differentiation. The cells were harvested on day 15 of beta cell differentiation and assayed for PDX/NeuroD1/C-Peptide/Glucagon/Somatostatin expression levels by intracellular flow cytometry. […] The total C-Peptide levels were around 10% of which 5% of cells appeared monohormonal. Glucagon expression was not recorded. C-peptide release assays were performed as described above. […] Both the Dox induced and un-induced beta cell cultures were capable of eliciting a dose-dependent response to glucose (FIG. 30).

[3] = test system: beta cells derived from 2.038AT4 cells; experiment: C-peptide release assay (glucose responsiveness) of end-stage beta cells
Protocol: C-peptide release assays were performed as previously described (D'Amour et al., 2006) using a Mercodia Ultrasensitive C-peptide ELISA kit (Mercodia). Briefly, aggregates that were beyond day 25 in the beta cell differentiation protocol from each iPSC clone were placed in a millicell PCF insert within a 24 well plate. The aggregates were equilibrated in 1 ml KRBH medium for one hour at 37° C. and 5% CO2, 20% O2. The aggregates were next placed in a second well containing 0.5 ml KRBH medium supplemented with serially increasing levels of glucose from 1-20 mM. Each incubation lasted for 20 mins at 37° C. and 5% CO2, 20% O2. Extreme care was taken to drain the aggregates of all residual fluid between well transfers. The supernatant left behind was collected and stored at −20° C. At the end of the experiment the aggregates were digested with TryPLE and the total viable cell count per sample was determined to normalize the data. C-peptide secretion was normalized based on the total viable cell number taken for each sample.
C-peptide release assays were performed as described in Example 12. Beta cell cultures induced with Dox induction between days 10-15 generated a response to between 1-5 mM glucose (FIG. 28). […]
The experiment was performed again with the addition of Dox (1.5 μg/ml) between day 10-15 of beta cell differentiation. […] Glucagon expression was not recorded. […]

2.038AT4 cells [4] = experiment: qPCR analysis of ERG and GFI expression; conditions: Dox induction during beta cell differentiation
Protocol: The levels of ERG (FIG. 32A) and GFI (FIG. 32B) transcripts at different stages of the process were quantified from 2.038 and 2.038AT4 cells. Dox induction of 2.038AT4 cells was only applied at the beta cell differentiation stage. Cells from 2.038AT4 were always cultured in media containing neomycin (100 μg/mL) and puromycin (600 ng/mL) regardless of stage of differentiation. RNA was isolated from undifferentiated iPSC, DE, EPC, and beta cell cultures derived from 2.038 cells and 2.038AT4 cells using the RNeasy Plus Mini Kit from Qiagen (Catalog #74136) according to the manufacturer's directions. RNA quantification was performed using the Nanodrop 2000. RNA was reverse transcribed with the ImProm-II RT System from Promega (Catalog # A3800) according to manufacturer's directions. rt-qPCR was performed using TaqMan Gene Expression Master Mix (Catalog #4369016) and TaqMan probes (ERG: Hs01554629_m1; GFI1: Hs00382207_m1; GAPDH: Hs99999905_m1) with technical triplicates and run on the Roche LightCycler for 45 cycles. Fold induction was calculated by DeltaCp with normalization to GAPDH. Undifferentiated iPSCs of the same genetic background were used as negative controls. Whole pancreas RNA (Ambion Catalog # AM7954) and human islets provided by the UW Islet Core were used as positive controls.

Cc1c[nH]c(-c2cnc(NCCNc3ccc(C#N)cn3)nc2-c2ccc(Cl)cc2Cl)n1 [CHIR, CHIR99021]
CXCR4/CD117 co-expressing cells ([1]; cell line 2.038 (1131), format 6 well, harvested day 7): 45%
Output DE Day 7 ([1]; cell line 2.038 (1131), format 6 well, input iPSCs 1.95 ×10^6): 84 ×10^6
CXCR4/CD117 co-expressing cells ([1]; cell line 2.038, format T150, harvested day 7): 54%
Output DE Day 7 ([1]; cell line 2.038, format T150, input iPSCs 5.85 ×10^6): 186 ×10^6
Effect on efficiency of DE formation ([1]; CHIR added on day zero of endoderm induction): did not result in increased efficiency of DE formation

C[C@H]1c2cccc(O)c2C(=O)C2=C(O)[C@]3(O)C(=O)C(C(N)=O)=C(O)[C@@H](N(C)C)[C@@H]3[C@@H](O)[C@@H]21 [Dox, Doxycycline]
Monohormonal cells (2.038AT4 cells [2]): 5%
PDX/NeuroD1 expression (2.038AT4 cells [2]): 25%-30
Total C-Peptide levels (2.038AT4 cells [2]): around 10%
Glucose concentration range of dose-dependent C-peptide response ([3]; Dox 1.5 μg/ml between day 10-15, repeat experiment, un-induced cultures also responded): 1 to 15 mM
Glucose concentration range eliciting C-peptide response ([3]; Dox induction between days 10-15): 1 to 5 mM
Level of ERG/GFI transcripts (2.038AT4 cells [4]): slight increase
